The values that follow are results of earlier work, collected in the CATMoS acute toxicity set (Mansouri et al. 2021).

Structures are written as SMILES. “And” between values parts separate entries of the source, which are not always exact repeats. Equal entries are not always repeated.

The series in a line: rat acute oral toxicity. The conditions noted are these: in vivo.
As for `CCN1CCc2c3n(c4ccccc24)C(C(=O)OC)=CCC31` (stereo not given), the LD50 was 2350 mg/kg.
For `CC[N+](CC)(CC)CCC(O)(c1ccccc1)C1CCCCC1` (stereo not given), the LD50 was 1100 mg/kg.
As for `C[C@@H]1O[C@@H](O[C@@H]2C=C3CC[C@@H]4[C@H](CC[C@]5(C)[C@@H](c6ccc(=O)oc6)CC[C@]45O)[C@@]3(C)CC2)[C@H](O)[C@H](O)[C@H]1O`, the LD50 is 56 mg/kg.
`CC(Cl)C(=O)O` (stereo not given): the LD50 was 800 mg/kg.
On to `NC1CCC(CC2CCC(N)CC2)CC1` (stereo not given), for which the LD50 was 1750 mg/kg.
`Nc1ccc(C(=O)Nc2ccccc2N)cc1`: the LD50 is 95 mg/kg.
Turning to `O=S(=O)(O)c1cccc2c(/N=N/c3ccc(/N=N/c4ccc(Nc5ccccc5)c5c(S(=O)(=O)O)cccc45)c4ccccc34)cccc12`, the LD50 is 15000 mg/kg.
In the case of `CCCCN(CCCC)S(=O)(=O)c1ccc(Cl)cc1`, the LD50 is 500 mg/kg.
With `O=C(O)c1cccnc1Nc1cccc(C(F)(F)F)c1`, the LD50 is 250 mg/kg.
Turning to `N#CC(N=Nc1ccc(C(F)(F)F)cc1)=NNc1ccc(C(F)(F)F)cc1`, the LD50 was 613 mg/kg.
On to `CCCCCCCCCCCCCCCC[N+](C)(C)CC(=O)[O-]`, for which the LD50 was 1620 mg/kg.
As to `O=C(O)Cn1c(=O)n(Cc2ccc(Br)cc2F)c(=O)c2ccc(F)cc21`, the LD50 was 2140 mg/kg.
For the molecule `OCc1c(F)c(F)c(F)c(F)c1F`, the LD50 is 900 mg/kg.
In the case of `C=C(Cl)CSC(=S)N(CC)CC`, the LD50 is 850 mg/kg.
`CCP(=S)(CC)Oc1cc(Cl)c(Cl)cc1Cl`: the LD50 is 100 mg/kg.
As to `CCOC(=O)C1=C(C)NC(C)=C(C(=O)OCC)C1c1ccccc1/C=C/C(=O)OC(C)(C)C`, the LD50 is 880 mg/kg.
Consider `COP(=O)(Oc1ccccc1)OC(Br)C(Cl)(Cl)Br` (stereo not given), for which the LD50 is 500 mg/kg.
`CC(C)(C)NCC(O)c1ccc(O)c(CO)n1` (stereo not given): the LD50 was 2800 mg/kg.
For the molecule `NC[C@@H]1O[C@H](O[C@H]2[C@@H](O)[C@H](O[C@@H]3[C@@H](O)[C@H](N)C[C@H](N)[C@H]3O[C@H]3O[C@H](CO)[C@@H](O)[C@H](O)[C@H]3N)O[C@@H]2CO)[C@H](N)[C@@H](O)[C@@H]1O`, the LD50 was 21600 mg/kg.
Turning to `CNC(=O)Oc1c(C(C)C)ccc(C)c1Cl`, the LD50 was 250 mg/kg.
As to `Clc1ccc(CCC(Cn2ccnc2)Sc2c(Cl)cccc2Cl)cc1` (stereo not given), the LD50 is 1720 mg/kg.
Turning to `COC(C)OC`, the median lethal dose (LD50) is 6500 mg/kg.
Consider `Clc1nc(C(Cl)Cl)c(Cl)c(Cl)c1Cl`, for which the LD50 is 1780 mg/kg.
Regarding `CCCCCCCCS(=O)CCCCl` (stereo not given), the LD50 was 5660 mg/kg.
Consider `O=C(O)CCCCCCI`, for which the LD50 is 2240 mg/kg.
With `CC(Cl)(Cl)CCl`, the LD50 is 1140 mg/kg.
Turning to `C[C@H]1O[C@H](O[C@H]2[C@H](O)[C@@H](O)[C@@H](O)[C@H](O)[C@@H]2O)[C@@H](N)C[C@@H]1NC(=N)C(=O)O`, the LD50 is 22000 mg/kg and 11400 mg/kg.
In the case of `O=c1[nH]c2ccccc2o1`, the median lethal dose (LD50) was 700 mg/kg.
For `O=C(O)CCC1(CCC(=O)O)c2ccccc2-c2ccccc21`, the LD50 was 2140 mg/kg.
For the molecule `C[N+]1(C)CCCC1COC(=O)C(O)(c1ccccc1)C1CCCCC1` (stereo not given), the LD50 is 780 mg/kg.
Consider `CCOC(C(=O)O)(c1ccccc1)c1ccccc1`, for which the LD50 was 1000 mg/kg.
Take `CN1CCC(CN2c3ccccc3Sc3ccccc32)C1` (stereo not given): the LD50 is 260 mg/kg and 162 mg/kg.
For the molecule `CCP(c1ccccc1)c1ccccc1`, the LD50 is 500 mg/kg.
For the molecule `CCCCN(N=O)C(=O)OCC`, the LD50 was 900 mg/kg.
Take `CC(O)C(c1ccccc1)N1CCN(CCOc2ccccc2)CC1` (stereo not given): the LD50 is 250 mg/kg.
On to `O=[N+]([O-])c1cc2nc(C(F)(F)F)[nH]c2cc1[N+](=O)[O-]`, for which the LD50 was 15.2 mg/kg.
As to `Cc1nnc(NS(=O)(=O)c2ccc(N)cc2)s1`, the LD50 is 3500 mg/kg.
As for `COP(=O)(OC)OC(c1ccc(Cl)cc1)P(=O)(OC)OC` (stereo not given), the LD50 is 3200 mg/kg.
Take `CN(C)N`: the LD50 was 122 mg/kg and 196 mg/kg.
As for `Oc1ccc(-c2ccccc2)cc1CN1CCCC1`, the LD50 was 30 mg/kg.
With `CC(=O)CC(c1ccc([N+](=O)[O-])cc1)c1c(O)c2ccccc2oc1=O` (stereo not given), the LD50 was 513 mg/kg.
With `CCC(C)(O)c1ccccc1` (stereo not given), the LD50 is 1400 mg/kg.
For the molecule `FCCBr`, the LD50 was 5 mg/kg.
Turning to `Cc1ccc(O)c(C2CCCCC2)c1`, the LD50 is 1870 mg/kg.
As for `OC1(c2ccc(F)cc2)c2ccccc2C2=NCCN21` (stereo not given), the LD50 is 200 mg/kg.
`CCSCc1ccccc1OC(=O)NC`: the LD50 was 200 mg/kg.
Consider `CCN(CC)CCN1C(=O)NC(c2ccccc2)(c2ccccc2)C1=O`, for which the LD50 was 1300 mg/kg.
For `CCN(N=O)C(=O)NC(N)=O`, the LD50 is 1050 mg/kg.
For the molecule `CC(C)C(=O)OC1CCC(N2CCCCC2)CC1` (stereo not given), the LD50 was 3150 mg/kg.
For the molecule `CCC(C)(C)c1ccc(O)c(C(C)(C)CC)c1`, the LD50 is 330 mg/kg.
As for `CCN(CC)c1ccc(N)c(C)c1`, the LD50 was 200 mg/kg.
In the case of `Cc1ccnc(C)c1`, the LD50 was 200 mg/kg.
`CN(C)N=Nc1ccc(F)cc1`: the LD50 is 326 mg/kg.
For the molecule `COc1ccc2c(c1)OC(C)(C)[C@H](c1ccccc1)[C@H]2c1ccc(OCCN2CCCC2)cc1` (racemic), the LD50 was 800 mg/kg.
For `C1COCCOCCOCCOCCO1`, the LD50 is 1410 mg/kg.
For the molecule `CCOc1cc(OP(=S)(OC)OC)nc(CC)n1`, the LD50 was 1800 mg/kg.
On to `CS(=O)(=O)OCCCN(CCCOS(C)(=O)=O)Cc1ccccc1`, for which the LD50 was 375 mg/kg.
Consider `Cc1cc(=O)[nH]c(=O)[nH]1`, for which the LD50 is 64500 mg/kg.
`CCCCOC(=O)C(Cl)(Cl)C(Cl)=C(Cl)Cl`: the LD50 was 2090 mg/kg.
As to `N#Cc1ccc([N+](=O)[O-])cc1`, the LD50 is 30 mg/kg.
On to `CCOP(=S)(OCC)SCSCSP(=S)(OCC)OCC`, for which the LD50 was 8.5 mg/kg.
Consider `CC(=O)OCCC(C)CCC=C(C)C` (stereo not given), for which the LD50 is 6800 mg/kg.
For `COP(=S)(OC)OC1CC(C)CCC1C(C)C` (stereo not given), the LD50 is 750 mg/kg.
As to `CCNc1nc(NCC)nc(SC)n1`, the LD50 was 750 mg/kg.
With `COS(=O)(=O)c1ccc(C)cc1`, the LD50 is 341 mg/kg.
Consider `NNc1ccccc1`, for which the LD50 is 188 mg/kg.
As for `CCC(=O)OCC(=O)[C@@]1(OC(=O)CC)[C@H](C)C[C@H]2[C@H]3[C@H]([C@@H](O)C[C@@]21C)[C@@]1(C)C=CC(=O)C=C1C[C@H]3Cl`, the LD50 was 3590 mg/kg.
As to `CNC(=O)Oc1ccccc1Cl`, the LD50 is 648 mg/kg.
As for `CC(=O)C(C)(C)C`, the LD50 was 610 mg/kg.
For the molecule `C(=NC1CCCCC1)=NC1CCCCC1`, the median lethal dose (LD50) was 400 mg/kg.
For `COc1cc(C(=O)N(C)C)nn1-c1cccc(Cl)c1`, the LD50 was 790 mg/kg.
On to `CCn1nc(C(=O)O)c(=O)c2cc3c(cc21)OCO3`, for which the LD50 was 3610 mg/kg.
As to `C=C(F)C(=O)OCC(F)(F)C(F)F`, the LD50 was 60 mg/kg.
As to `CC(C)(C)N`, the LD50 was 96 mg/kg.
`C=CCc1ccccc1`: the LD50 is 5540 mg/kg.
Regarding `O=C(CN1CCOCC1)N/N=C/c1ccc([N+](=O)[O-])o1`, the LD50 is 420 mg/kg.
As to `CCN(CC)CCOCc1ccc(C)cc1`, the LD50 is 531 mg/kg.
With `COC(=O)OC`, the LD50 was 13000 mg/kg.
With `COc1ccc(C(=C(c2ccccc2)[N+](=O)[O-])c2ccc(OCCN3CCCC3)cc2)cc1`, the LD50 is 1780 mg/kg.
In the case of `O=[N+]([O-])c1ccc(O)c2ncccc12`, the LD50 is 510 mg/kg.
`CC(C)(C)C(O)/C(=C\c1ccc(Cl)cc1)n1cncn1` (stereo not given): the LD50 is 1790 mg/kg.
`CCOC(C1=NCC(CC)(CC)CN1)c1ccc(Cl)cc1` (stereo not given): the LD50 was 375 mg/kg.
As for `COCCN1C=CC(=C2C(=O)c3ccccc3C2=O)C=C1`, the LD50 is 350 mg/kg.
`CC(C)(C)c1ccc2nc(C(F)(F)F)[nH]c2c1`: the LD50 was 35 mg/kg.
On to `COc1ccc2c(c1)c(CC(=O)OCC(=O)O)c(C)n2C(=O)c1ccc(Cl)cc1`, for which the LD50 is 24.2 mg/kg.
Regarding `CCCC(=O)c1ccc2c(c1)N(CCCN(C)C)c1ccccc1S2`, the LD50 was 300 mg/kg.
As to `CCOC(C1=NCCCCN1)c1ccccc1` (stereo not given), the LD50 is 375 mg/kg.
With `C/C=C/C=C/C(=O)O`, the LD50 is 7360 mg/kg and 4340 mg/kg and 7160 mg/kg.
For the molecule `C[Si](C)(C)CCC(=O)O`, the LD50 was 3000 mg/kg.
Regarding `CN(CCC#N)CCC#N`, the LD50 was 890 mg/kg.
For the molecule `C=CC=CC=CCCCCC`, the LD50 was 7560 mg/kg.
`CCSCC`: the LD50 is 3420 mg/kg.
On to `Cc1cc(C(=O)c2ccccc2)ccc1N=Cc1ccc(OCCC(C)C)cc1`, for which the LD50 is 1500 mg/kg.
In the case of `CC(C)(C)NC[C@H](O)COc1cccc2c1CCCC2=O`, the LD50 was 700 mg/kg.
As to `Cc1ncc(CSCc2cnc(C)c(O)c2CO)c(CO)c1O`, the LD50 was 7500 mg/kg.
Take `CNC(=O)CSP(=O)(OC)SC` (stereo not given): the LD50 was 100 mg/kg.
As for `CCCCn1cnnc1`, the LD50 is 50 mg/kg.
Regarding `CCOP(=O)(OC=CCl)OCC`, the LD50 was 7 mg/kg.
In the case of `COc1ccccc1N1CCN(CCC(=O)c2ccc(N3CCOCC3)cc2)CC1`, the LD50 is 400 mg/kg.
Take `COCCOc1cnc(NS(=O)(=O)c2ccccc2)nc1`: the LD50 is 3100 mg/kg.
For the molecule `O=C1NC(=O)C(c2ccccc2)(c2ccccc2)N1S(=O)(=O)c1ccccc1`, the LD50 was 1700 mg/kg.
Turning to `CC[N+](CC)(CC)Cc1ccccc1`, the LD50 was 2220 mg/kg.
For `CCOC(C1=NCC(C)(C)CN1)c1cccc2ccccc12` (stereo not given), the LD50 is 55 mg/kg.
In the case of `CC(C(c1ccc(Cl)cc1)c1ccc(Cl)cc1)[N+](=O)[O-]` (stereo not given), the LD50 was 750 mg/kg.
`CC(=O)NC(=O)c1ccccc1O`: the LD50 was 1800 mg/kg.
For `COC(=S)SSC(Cl)(Cl)Cl`, the median lethal dose (LD50) is 1540 mg/kg.
For the molecule `Nc1cc([N+](=O)[O-])ccc1Cl`, the LD50 is 2020 mg/kg.
For the molecule `C=C(C)C(=O)OCCN(CC)CC`, the LD50 was 4700 mg/kg.
For the molecule `Cc1cccnc1-n1c(C)nc2ccccc2c1=O`, the LD50 was 395 mg/kg.
As to `CCOC(=O)C1CC2CC1C1OC21` (stereo not given), the LD50 was 4760 mg/kg.
Consider `COc1cc(-c2ccc(N=Nc3c(O)ccc4ccccc34)c(OC)c2)ccc1N=Nc1ccc2c(S(=O)O)cc(S(=O)(=O)O)c(N)c2c1`, for which the LD50 is 6700 mg/kg.
With `C[C@H](CCC(=O)O)[C@H]1CC[C@H]2[C@@H]3[C@H](O)C[C@@H]4C[C@H](O)CC[C@]4(C)[C@H]3CC[C@]12C`, the LD50 was 4000 mg/kg.
In the case of `CCOc1cc2c(cc1OCC)C1CC(=O)C(CCC#N)CN1CC2` (stereo not given), the LD50 was 780 mg/kg.
Turning to `CN(C)N=Nc1cccnc1`, the LD50 was 160 mg/kg.
Consider `Nc1nc(N)nc(NC2CC2)n1`, for which the LD50 was 3390 mg/kg.
On to `O=NN1CCCOC1`, for which the LD50 was 600 mg/kg.
`CCCCC(C)C(C)C(C)C(C)=O` (stereo not given): the LD50 is 8470 mg/kg.
For the molecule `O=NN1CCc2ccccc21`, the LD50 was 320 mg/kg.
Regarding `C=CCOC(=O)CC(C)C`, the LD50 was 230 mg/kg.
On to `O=C(O)c1cn(C2CC2)c2cc(Cl)c(F)cc2c1=O`, for which the LD50 was 583 mg/kg.

Broadly, the LD50 is the dose at which mortality reaches 50%.
